Results reported in US20170107207A1, “AMINOPYRAZOLONE DERIVATIVE” (DAIICHI SANKYO COMPANY, LIMITED, priority 2014, published 2017).

Tests used:
[1] = test system: human lymphoma cell line RAMOS cells; assay: Cell growth inhibition test using RAMOS cell, MTT assay; type: cell-based; conditions: 50% growth inhibition concentration
Summary of the method: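 Cells in RPMI1640 with 10% FBS were exposed to compound (DMSO ≤1%) for 3 days at 37° C, 5% CO2. Viability was read by MTT (4 h, formazan in DMSO, OD 540/660 nm) against a day-0 plate; GI50 was interpolated from T/C % growth rates.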

TIP48/TIP49 complex = molecular target: T1, TIP48/TIP49 complex (Homo sapiens, UniProt Q9Y230+Q9Y265); assay: ATPase assay of TIP48/TIP49 complex (ADP-Glo); type: biochemical; conditions: concentration at which the ATPase activity was inhibited by 50%
T1 construct: made in house; host or cells: E. coli
Summary of the method: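 Recombinant human TIP48 and TIP49 expressed in E. coli (24.5 μg/mL final) were incubated 1.5 h at room temperature with compound (0.0007–200 μM, 2% DMSO) in Tris-HCl pH 7.5 buffer containing MgCl2 and ATP. ADP formed was detected by ADP-Glo luminescence; inhibition came from dose-response curves.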

[2] = test system: human lymphoma cell line RAMOS cells; assay: Cell growth inhibition test using RAMOS cell, ATP assay (CellTiter-Glo); type: cell-based; conditions: Homo sapiens, Ramos, 72 h, cultured 3 days, 50% growth inhibition concentration
Summary of the method: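 RAMOS cells seeded at 4000 cells/well with compound and cultured 3 days at 37° C, 5% CO2; viability by CellTiter-Glo luminescence. Growth rate T/C % = 100×[(B−C)/(A−C)] using day-0 and final readings; GI50 interpolated from the two concentrations bracketing 50% growth.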

T1 sequence (Q9Y230 whole entry): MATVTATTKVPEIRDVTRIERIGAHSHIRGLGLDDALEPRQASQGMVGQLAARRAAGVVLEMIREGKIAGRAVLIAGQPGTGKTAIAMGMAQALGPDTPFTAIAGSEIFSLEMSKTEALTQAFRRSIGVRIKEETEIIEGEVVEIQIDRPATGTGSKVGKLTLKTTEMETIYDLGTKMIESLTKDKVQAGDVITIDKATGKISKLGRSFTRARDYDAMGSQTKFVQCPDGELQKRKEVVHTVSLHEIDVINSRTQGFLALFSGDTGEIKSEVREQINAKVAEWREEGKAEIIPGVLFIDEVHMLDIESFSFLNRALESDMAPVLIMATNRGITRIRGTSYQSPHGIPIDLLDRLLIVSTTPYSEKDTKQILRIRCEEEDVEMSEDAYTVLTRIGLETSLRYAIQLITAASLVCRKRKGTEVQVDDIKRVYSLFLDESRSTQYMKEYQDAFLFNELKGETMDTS
T1 sequence (Q9Y265 whole entry): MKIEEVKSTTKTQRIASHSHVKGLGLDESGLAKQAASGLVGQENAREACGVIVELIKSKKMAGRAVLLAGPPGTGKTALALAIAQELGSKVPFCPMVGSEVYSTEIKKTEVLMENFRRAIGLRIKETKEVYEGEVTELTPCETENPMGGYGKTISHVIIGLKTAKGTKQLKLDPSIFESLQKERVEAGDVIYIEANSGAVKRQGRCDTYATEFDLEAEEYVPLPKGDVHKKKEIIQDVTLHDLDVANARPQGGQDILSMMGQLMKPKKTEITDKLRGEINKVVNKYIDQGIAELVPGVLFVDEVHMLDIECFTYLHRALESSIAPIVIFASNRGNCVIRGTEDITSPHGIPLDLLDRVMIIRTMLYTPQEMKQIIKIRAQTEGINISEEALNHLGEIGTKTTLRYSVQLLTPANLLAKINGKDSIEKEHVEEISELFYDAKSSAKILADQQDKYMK

GI50 [1] [nM]	IC50 (TIP48/TIP49 complex) [nM]	GI50 [2] [nM]	SMILES
53	53	150	CCOc1ccc(Cl)cc1C(=O)NCC(C)(C)CC(=O)Nc1c(CCN(C)C)n(C)n(-c2ccccc2)c1=O [Example 11, 5-Chloro-N-[4-({5-[2-(dimethylamino)ethyl]-1-methyl-3-oxo-2-phenyl-2,3-dihydro-1H-pyrazol-4-yl}amino)-2,2-dimethyl-4-oxobutyl]-2-ethoxybenzamide]
35	62	140	CCOc1cc(F)c(Cl)cc1C(=O)NCC(C)(C)CC(=O)Nc1c(CCN(C)C)n(C)n(-c2ccccc2)c1=O [Example 12, 5-Chloro-N-[4-({5-[2-(dimethylamino)ethyl]-1-methyl-3-oxo-2-phenyl-2,3-dihydro-1H-pyrazol-4-yl}amino)-2,2-dimethyl-4-oxobutyl]-2-ethoxy-4-fluorobenzamide]
110	82	610	CCOc1ncc(Cl)cc1C(=O)NCC(C)(C)CC(=O)Nc1c(CCN(C)C)n(C)n(-c2ccccc2)c1=O [Example 13, 5-Chloro-N-[4-({5-[2-(dimethylamino)ethyl]-1-methyl-3-oxo-2-phenyl-2,3-dihydro-1H-pyrazol-4-yl}amino)-2,2-dimethyl-4-oxobutyl]-2-ethoxypyridine-3-carboxamide]
32	41	130	Cc1cc2cc(Cl)cc(C(=O)NCC(C)(C)CC(=O)Nc3c(CCN(C)C)n(C)n(-c4ccccc4)c3=O)c2o1 [Example 14, 5-Chloro-N-[4-({5-[2-(dimethylamino)ethyl]-1-methyl-3-oxo-2-phenyl-2,3-dihydro-1H-pyrazol-4-yl}amino)-2,2-dimethyl-4-oxobutyl]-2-methylbenzofuran-7-carboxamide]
99	82	240	CCOc1ccc(Cl)cc1C(=O)NCC(C)(C)CC(=O)Nc1c(CCN(C)CC(F)(F)F)n(C)n(-c2ccccc2)c1=O [Example 39, 5-Chloro-N-{2,2-dimethyl-4-[(1-methyl-5-{2-[methyl(2,2,2-trifluoroethyl)amino]ethyl}-3-oxo-2-phenyl-2,3-dihydro-1H-pyrazol-4-yl)amino]-4-oxobutyl}-2-ethoxybenzamide]
27	33	120	CCOc1ccc(Cl)cc1C(=O)NCC(C)(C)CC(=O)Nc1c(CCN(C)C)n(CC)n(-c2ccccc2)c1=O [Example 40, 5-Chloro-N-[4-({5-[2-(dimethylamino)ethyl]-1-ethyl-3-oxo-2-phenyl-2,3-dihydro-1H-pyrazol-4-yl}amino)-2,2-dimethyl-4-oxobutyl]-2-ethoxybenzamide]
42	31	140	CCOc1ccc(Cl)cc1C(=O)NCC(C)(C)CC(=O)Nc1c(COC)n(C)n(-c2ccccc2)c1=O [Example 114, 5-Chloro-2-ethoxy-N-(4-{[5-(methoxymethyl)-1-methyl-3-oxo-2-phenyl-2,3-dihydro-1H-pyrazol-4-yl]amino}-2,2-dimethyl-4-oxobutyl)benzamide]
230	65	640	CCOc1ncc(Cl)cc1NC(=O)CC(C)(C)CC(=O)Nc1c(COC)n(C)n(-c2ccccc2)c1=O [Example 118, N-(5-Chloro-2-ethoxy-3-pyridine)-N′-[5-(methoxymethyl)-1-methyl-3-oxo-2-phenyl-2,3-dihydro-1H-pyrazol-4-yl]-3,3-dimethylpentanediamide]
1200	260		C=Cn1c(C)c(NC(=O)CC(C)(C)CC(=O)Nc2cc(Cl)c(F)cc2OC)c(=O)n1-c1ccccc1 [Example 143, N-(5-Chloro-4-fluoro-2-methoxyphenyl)-3,3-dimethyl-N′-(3-methyl-5-oxo-1-phenyl-2-vinylpyrazol-4-yl)pentanediamide]
11000	1500		COc1cc(F)c(Cl)cc1NC(=O)CC(C)(C)CC(=O)Nc1c(C)[nH]n(-c2ccccc2)c1=O [Example 144, N-(5-Chloro-4-fluoro-2-methoxyphenyl)-3,3-dimethyl-N′-(5-methyl-3-oxo-2-phenyl-1H-pyrazol-4-yl)pentanediamide]
770	42		COc1ccc(Cl)cc1C(=O)NCC(C)(C)CC(=O)Nc1c(C)n(C)n(-c2cccc(C)c2)c1=O [Example 145, 5-Chloro-N-(4-{[1,5-dimethyl-2-(m-toluyl)-3-oxopyrazol-4-yl]amino}-2,2-dimethyl-4-oxobutyl)-2-methoxybenzamide]
40	81		Cc1c(NC(=O)CC(C)(C)CC(=O)Nc2cc(Cl)ccc2OC(C)C)c(=O)n(-c2cccc(C(F)(F)F)c2)n1C [Example 147, N-(5-Chloro-2-isopropoxy-phenyl)-N′-[1,5-dimethyl-3-oxo-2-[3-(trifluoromethyl)phenyl]pyrazol-4-yl]-3,3-dimethylpentanediamide]
190	100		CCOc1ccc(Cl)cc1C(=O)NCC(C)(C)CC(=O)Nc1c(C)n(C)n(-c2ccccn2)c1=O [Example 149, 5-Chloro-N-(4-{[1,5-dimethyl-3-oxo-2-(2-pyridyl)pyrazol-4-yl]amino}-2,2-dimethyl-4-oxobutyl)-2-ethoxybenzamide]
350	110		CCOc1ncc(Cl)cc1C(=O)NCC(C)(C)CC(=O)Nc1c(C)n(C)n(-c2ccccn2)c1=O [Example 150, 5-Chloro-N-(4-{[1,5-dimethyl-3-oxo-2-(2-pyridyl)-2,3-dihydro-1H-pyrazol-4-yl]amino}-2,2-dimethyl-4-oxobutyl)-2-ethoxypyridine-3-carboxamide]
130	40		Cc1cc2cc(Cl)cc(C(=O)NCC(C)(C)CC(=O)Nc3c(C)n(C)n(-c4ccccn4)c3=O)c2o1 [Example 151, 5-Chloro-N-(4-{[1,5-dimethyl-3-oxo-2-(2-pyridyl)-2,3-dihydro-1H-pyrazol-4-yl]amino}-2,2-dimethyl-4-oxobutyl)-2-methylbenzofuran-7-carboxamide]
81	57		CCOc1ccc(Cl)cc1C(=O)NCC(C)(C)CC(=O)Nc1c(C)n(C)n(-c2cccc(C)n2)c1=O [Example 152, 5-Chloro-N-(4-{[1,5-dimethyl-2-(6-methyl-2-pyridyl)-3-oxopyrazol-4-yl]amino}-2,2-dimethyl-4-oxobutyl)-2-ethoxybenzamide]
210	98		CCOc1ncc(Cl)cc1C(=O)NCC(C)(C)CC(=O)Nc1c(C)n(C)n(-c2cccc(C)n2)c1=O [Example 153, 5-Chloro-N-(4-{[1,5-dimethyl-2-(6-methyl-2-pyridyl)-3-oxo-2,3-dihydro-1H-pyrazol-4-yl]amino}-2,2-dimethyl-4-oxobutyl)-2-ethoxypyridine-3-carboxamide]
110	82		Cc1cccc(-n2c(=O)c(NC(=O)CC(C)(C)CC(=O)Nc3cc(Cl)ccc3OC(F)(F)F)c(C)n2C)n1 [Example 154, N-[5-Chloro-2-(trifluoromethoxy)phenyl]-N′-[1,5-dimethyl-2-(6-methyl-2-pyridyl)-3-oxo-2,3-dihydro-1H-pyrazol-4-yl]-3,3-dimethylpentanediamide]
59	59	190	Cc1cccc(-n2c(=O)c(NC(=O)CC(C)(C)CNC(=O)c3cc(Cl)cc4cc(C)oc34)c(C)n2C)n1 [Example 155, 5-Chloro-N-(4-{[1,5-dimethyl-2-(6-methyl-2-pyridyl)-3-oxopyrazol-4-yl]amino}-2,2-dimethyl-4-oxobutyl)-2-methylbenzofuran-7-carboxamide]
100	48		CCOc1ccc(Cl)cc1C(=O)NCC(C)(C)CC(=O)Nc1c(C)n(C(C)C)n(-c2ccccn2)c1=O [Example 156, 5-Chloro-2-ethoxy-N-(4-{[1-isopropyl-5-methyl-3-oxo-2-(2-pyridyl)pyrazol-4-yl]amino}-2,2-dimethyl-4-oxobutyl)benzamide]
120	140	430	CCOc1ccc(Cl)cc1C(=O)NCC(C)(C)CC(=O)Nc1c(C)n(C)n(-c2cc(OC)ccn2)c1=O [Example 157, 5-Chloro-2-ethoxy-N-(4-{[1-(4-methoxy-2-pyridyl)-2,3-dimethyl-5-oxopyrazol-4-yl]amino}-2,2-dimethyl-4-oxobutyl)benzamide]
990	200		COc1ccc(Cl)cc1NC(=O)CC(C)(C)CC(=O)Nc1c(C)n(C)n(C2CCCCC2)c1=O [Example 160, N-(5-Chloro-2-methoxyphenyl)-N′-(1-cyclohexyl-2,3-dimethyl-5-oxopyrazol-4-yl)-3,3-dimethylpentanediamide]
